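Cells were grown in 96-well plates and exposed to each compound for 48 hours at five concentrations; endpoints were interpolated linearly between bracketing concentrations, or set to the highest concentration if not reached. GI50: concentration for 50% inhibition of growth. Definition used: TGI = concentration required for complete inhibition of growth.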
Tests used:
Test in all cases: inhibition of tumour cell growth, NCI panel, 48 h
[1] = tested on: COLO 205 colon
[2] = tested on: SK-MEL-5 melanoma
[3] = tested on: A549 NSCLC
[4] = tested on: SNB-19 CNS
[5] = tested on: UACC-257 melanoma
[6] = tested on: SW-620 colon
[7] = tested on: ACHN renal
[8] = tested on: HCC-2998 colon
[9] = tested on: CAKI-1 renal
[10] = tested on: IGROV1 ovarian
[11] = tested on: CCRF-CEM leukemia
[12] = tested on: OVCAR-3 ovarian
[13] = tested on: 786-0 renal
[14] = tested on: A498 renal
[15] = tested on: UACC-62 melanoma
[16] = tested on: OVCAR-8 ovarian
[17] = tested on: NCI-H226 lung
[18] = tested on: SK-MEL-28 melanoma
[19] = tested on: DU-145 prostate
[20] = tested on: HT29 colon
[21] = tested on: T-47D breast
[22] = tested on: TK-10 renal
[23] = tested on: PC-3 prostate
[24] = tested on: SF-295 CNS
[25] = tested on: LOX IMVI melanoma
[26] = tested on: HOP-92 NSCLC
[27] = tested on: HCT-15 colon
[28] = tested on: SF-268 CNS
[29] = tested on: NCI-H460 lung
[30] = tested on: SN12C renal
[31] = tested on: KM12 colon
[32] = tested on: BT-549 breast
[33] = tested on: EKVX NSCLC
[34] = tested on: RPMI-8226 leukemia
[35] = tested on: SR leukemia
[36] = tested on: MALME-3M melanoma
[37] = tested on: RXF 393 renal
[38] = tested on: NCI-H23 lung
[39] = tested on: NCI-H522 lung
[40] = tested on: MDA-MB-231 breast
[41] = tested on: SNB-75 CNS
[42] = tested on: K-562 leukemia
[43] = tested on: HL-60(TB) leukemia
[44] = tested on: MCF7 breast
[45] = tested on: HOP-62 NSCLC
[46] = tested on: SK-MEL-2 melanoma
[47] = tested on: MDA-MB-435
[48] = tested on: HCT-116 colon
[49] = tested on: SK-OV-3 ovarian
[50] = tested on: M14 melanoma
[51] = tested on: SF-539 CNS
[52] = tested on: UO-31 renal
[53] = tested on: OVCAR-5 ovarian
[54] = tested on: MOLT-4 leukemia
[55] = tested on: OVCAR-4 ovarian
[56] = tested on: MDA-MB-468 breast
[57] = tested on: HS 578T breast
[58] = tested on: U251 CNS

Q: Which results are given for `CC1CCCCN1CCCNC(=O)N/C(N)=N/c1nc2ccccc2s1` (stereo unspecified)?
A: GI50 [1]: 14 µM; TGI [1]: 28.2 µM; GI50 [2]: 13.3 µM; TGI [2]: 26.2 µM; GI50 [3]: 21 µM; TGI [3]: 57.7 µM; GI50 [4]: 29.7 µM; TGI [4]: > 100 µM; GI50 [5]: 15.8 µM; TGI [5]: 30.7 µM; GI50 [6]: 16.2 µM; TGI [6]: 34.1 µM; GI50 [7]: 19.1 µM; TGI [7]: 48.1 µM; GI50 [8]: 15.2 µM; TGI [8]: 29.2 µM; GI50 [9]: 13.3 µM; TGI [9]: 28 µM; GI50 [10]: 21.3 µM; TGI [10]: 76.7 µM; GI50 [11]: 19.6 µM; TGI [11]: 57.8 µM; GI50 [12]: 24 µM; TGI [12]: > 100 µM; GI50 [13]: 17.2 µM; TGI [13]: 32.7 µM; GI50 [14]: 17 µM; TGI [14]: 38.2 µM; GI50 [15]: 16.8 µM; TGI [15]: 31.7 µM; GI50 [16]: 27.5 µM; TGI [16]: > 100 µM; GI50 [17]: 27.7 µM; TGI [17]: > 100 µM; GI50 [18]: 16.6 µM; TGI [18]: 30.5 µM; GI50 [19]: 46.7 µM; TGI [19]: > 100 µM; GI50 [20]: 15.3 µM; TGI [20]: 46.2 µM; GI50 [21]: 15.4 µM; TGI [21]: 39.6 µM; GI50 [22]: 20.8 µM; TGI [22]: 46 µM; GI50 [23]: 20 µM; TGI [23]: > 100 µM; GI50 [24]: 16 µM; TGI [24]: 30.7 µM; GI50 [25]: 13.9 µM; TGI [25]: 27.7 µM; GI50 [26]: 4.96 µM; TGI [26]: 41.6 µM; GI50 [27]: 16.4 µM; TGI [27]: 33.4 µM; GI50 [28]: 21.1 µM; TGI [28]: 79.8 µM; GI50 [29]: 19.1 µM; TGI [29]: 40.6 µM; GI50 [30]: 36.7 µM; TGI [30]: > 100 µM; GI50 [31]: 27 µM; TGI [31]: > 100 µM; GI50 [32]: 16.5 µM; TGI [32]: 59.3 µM; GI50 [33]: 27.9 µM; TGI [33]: > 100 µM; GI50 [34]: 17.4 µM; TGI [34]: 51.3 µM; GI50 [35]: 18.7 µM; TGI [35]: 58.5 µM; GI50 [36]: 13.9 µM; TGI [36]: 27.1 µM; GI50 [37]: 10.2 µM; TGI [37]: 33.3 µM; GI50 [38]: 27 µM; TGI [38]: > 100 µM; GI50 [39]: 18.3 µM; TGI [39]: 43.8 µM; GI50 [40]: 14.8 µM; TGI [40]: 40.7 µM; GI50 [41]: 7.4 µM; TGI [41]: 55.2 µM; GI50 [42]: 15.8 µM; TGI [42]: 46.7 µM; GI50 [43]: 11.5 µM; TGI [43]: 33.8 µM; GI50 [44]: 15 µM; TGI [44]: 31.7 µM; GI50 [45]: 21.3 µM; TGI [45]: > 100 µM; GI50 [46]: 16 µM; TGI [46]: 31.1 µM; GI50 [47]: 16.2 µM; TGI [47]: 30.2 µM; GI50 [48]: 15 µM; TGI [48]: 28.9 µM; GI50 [49]: 19.7 µM; TGI [49]: 89.1 µM; GI50 [50]: 15.8 µM; TGI [50]: 30.5 µM; GI50 [51]: 15.8 µM; TGI [51]: 30.1 µM; GI50 [52]: 10.2 µM; TGI [52]: 25.2 µM; GI50 [53]: 22.5 µM; TGI [53]: 68.5 µM; GI50 [54]: 12.1 µM; TGI [54]: 51.9 µM; GI50 [55]: 63.1 µM; TGI [55]: > 100 µM; GI50 [56]: 14.7 µM; TGI [56]: 30.7 µM; GI50 [57]: 15.1 µM; TGI [57]: 50.1 µM; GI50 [58]: 17 µM; TGI [58]: 39.3 µM

Reference: PubChem BioAssay (NCI)
